According to patent US20100076011A1, “Enantiomer-Pure Hexahydro-Pyrrolocyclopenta-Pyridine Derivatives” (priority 2004, published 2010):
Where a name gives a salt, the structure may show the parent alone.

molecular target: T1, α4β2-subtype (central nicotine receptor) (Rattus norvegicus, UniProt P09483+P12390); assay: Radioligand assay: [3H] cytisin binding to the α4β2-subtype in rat brain membranes; details: not given
T1 construct: Membrane-enriched fractions of rat brain without cerebellum; tissue ABS Inc. Wilmington, Del; host or cells: rat brain without cerebellum, membrane-enriched fractions
Procedure: (2 samples each). The non-specific binding was determined with 10 μM (−)nicotine. The incubation was […] by vacuum filtration through a Whatman GF/C filter which previously had been humidified with 0.5% polyethylene imine. Bound radioactivity was collected on Millipore Multiscreen plates FB with a Packard Cell Harvester, and determined with a Packard Topcount Microplate Beta Counter. IC50 values were determined by non-linear regression, and from this the Ki values by means of the Cheng-Prusoff equation, wherein Ki=IC50/1+[ligand]/KID. The mean Ki values were obtained from at least three individual determinations.

T1 sequence (P09483 31-630): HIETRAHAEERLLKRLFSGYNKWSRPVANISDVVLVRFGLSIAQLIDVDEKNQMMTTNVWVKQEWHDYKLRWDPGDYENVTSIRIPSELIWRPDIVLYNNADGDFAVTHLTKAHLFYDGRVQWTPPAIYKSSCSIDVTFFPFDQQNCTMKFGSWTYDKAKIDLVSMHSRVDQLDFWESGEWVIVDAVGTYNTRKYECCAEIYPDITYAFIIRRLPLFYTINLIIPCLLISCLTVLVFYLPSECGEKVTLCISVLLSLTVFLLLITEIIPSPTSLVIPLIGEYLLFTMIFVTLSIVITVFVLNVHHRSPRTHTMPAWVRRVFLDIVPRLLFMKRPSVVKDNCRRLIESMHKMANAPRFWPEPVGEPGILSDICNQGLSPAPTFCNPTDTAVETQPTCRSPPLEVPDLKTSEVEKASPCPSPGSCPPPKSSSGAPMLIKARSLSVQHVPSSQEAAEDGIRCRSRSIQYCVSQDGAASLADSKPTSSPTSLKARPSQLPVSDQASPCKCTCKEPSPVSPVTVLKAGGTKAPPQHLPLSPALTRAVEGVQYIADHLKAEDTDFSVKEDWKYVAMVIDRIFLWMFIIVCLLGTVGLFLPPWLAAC
T1 sequence (P12390 25-500): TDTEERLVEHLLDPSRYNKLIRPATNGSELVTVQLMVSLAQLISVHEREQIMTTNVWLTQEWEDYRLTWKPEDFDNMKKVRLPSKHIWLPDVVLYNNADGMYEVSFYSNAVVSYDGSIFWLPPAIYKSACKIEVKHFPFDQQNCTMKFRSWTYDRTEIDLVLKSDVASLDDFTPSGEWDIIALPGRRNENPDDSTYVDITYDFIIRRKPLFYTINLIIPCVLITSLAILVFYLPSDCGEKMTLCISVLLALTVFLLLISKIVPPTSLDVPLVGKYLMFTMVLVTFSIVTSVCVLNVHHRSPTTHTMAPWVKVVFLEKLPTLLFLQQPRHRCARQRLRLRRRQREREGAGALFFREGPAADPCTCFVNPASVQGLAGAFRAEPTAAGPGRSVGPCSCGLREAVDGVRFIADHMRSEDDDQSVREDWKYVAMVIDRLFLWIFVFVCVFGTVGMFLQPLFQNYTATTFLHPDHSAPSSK

Compared with c1cnc2c(c1)C1NCCC1C2 (single isomer, unassigned; (+)) [Example 1, (+)-[3aα,8bα]-1,2,3,3a,4,8b-Hexahydropyrrolo-[2′,3′:3,4]cyclopenta[1,2-b]pyridine-dihydrochloride], c1cc2c(cn1)[C@H]1NCC[C@H]1C2 [Example 6, (−)-[3aR-(3aα,8bα)]-1,2,3,3a,4,8b-Hexahydropyrrolo[3′,2′:4,5]-cyclopenta[1,2-c]pyridinodihydrochloride] is 160-fold lower in Ki: 2.43 µM for the first, 0.0152 µM for the second. The second binds more tightly here.

Compared with CN1CCC2Cc3ncccc3C21 (single isomer, unassigned; (+)) [Example 4, (+)-[3aα,8bα]-1,2,3,3a,4,8b-Hexahydro-1-methyl-pyrrolo[2′,3′:3,4]cyclopenta[1,2-b]pyridinedihydrochloride], CN1CC[C@@H]2Cc3ccncc3[C@@H]21 [Example 7, (+)-[3aS-(3aα,8bα)]-1,2,3,3a,4,8b-Hexahydro-1-methyl-pyrrolo[3′,2′:4,5]-cyclopenta[1,2-c]pyridinodihydrochloride] is lower in Ki: greater than 1000 µM for the first, 1.67 µM for the second. The second binds more tightly here.

Compared with c1cnc2c(c1)C1NCCC1C2 (single isomer, unassigned; (-)) [Example 2, (−)-[3aα,8bα]-1,2,3,3a,4,8b-Hexahydropyrrolo-[2′,3′:3,4]cyclopenta[1,2-b]pyridine-dihydrochloride], CN1CCC2Cc3ncccc3C21 (single isomer, unassigned; (-)) [Example 3, (−)-[3aα,8bα]-1,2,3,3a,4,8b-Hexahydro-1-methyl-pyrrolo[2′,3′:3,4]cyclopenta[1,2-b]pyridine-dihydrochloride] is lower in Ki: greater than 1000 µM for the first, 0.199 µM for the second. The second binds more tightly here.

In the case of CN1CC[C@H]2Cc3ccncc3[C@H]21 [Example 8, (−)-[3aR-(3aα,8bα)]-1,2,3,3a,4,8b-Hexahydro-1-methylpyrrolo[3′,2′:4,5]cyclopenta[1,2-c]pyridinodihydrochloride], the Ki is reported as 0.027 µM.

same assay, conditions: [3H] cytisin 0.75 nM, rat brain membranes without cerebellum, 75 min at 4° C.; mean of at least three determinations; Ki from IC50 by Cheng-Prusoff; read-out: Ki Values of the Enantiomer Pairs

For c1cc2c(cn1)[C@@H]1NCC[C@@H]1C2 [Example 5, (+)-(3aS-(3aα,8bα)]-1,2,3,3a,4,8b-Hexahydropyrrolo[3′,2′:4,5]-cyclopenta[1,2-c]-pyridinodihydrochloride], the Ki was 1.11 µM.

test system: not given; assay: not given; details: not given

First: c1cc2c(cn1)[C@H]1NCC[C@H]1C2 (as salt: hydrochloride) [Example 6, (−)-[3aR-(3aα,8bα)]-1,2,3,3a,4,8b-Hexahydropyrrolo[3′,2′:4,5]-cyclopenta[1,2-c]pyridinodihydrochloride]
Second: c1cnc2c(c1)C1NCCC1C2 (single isomer, unassigned; (-)) (as salt: hydrochloride) [Example 2, (−)-[3aα,8bα]-1,2,3,3a,4,8b-Hexahydropyrrolo-[2′,3′:3,4]cyclopenta[1,2-b]pyridine-dihydrochloride]
The melting point of the first is lower: 94 to 95 °C for the first, 95 to 97 °C for the second.
